# Measured values taken from PMC11200585, “Prospects for Prostate Cancer Chemotherapy: Cytotoxic Evaluation and Mechanistic Insights of Quinolinequinones with ADME/PK Profile” (Biomedicines, 2024).
# What was measured:
# Assay type in all cases: cell-based, human
# K-562 = assay: NCI-60 one-dose screen (leukemia)
# Method: (§1) The obtained quinolinequinones were submitted to NCI, Bethesda, USA, and, as per standard protocol of NCI, all compounds were evaluated for their antiproliferative activity at single-dose assay (10 µM concentration in DMSO) on a panel of 60 cancer cell lines derived from leukemia, non-small-cell lung, colon, CNS, melanoma, ovarian, renal, prostate, and breast, as per protocol. Tested compounds were added to the microtiter culture plates followed by incubation for 48 h at 37 °C. Sulforhodamine B (SRB), a protein-binding dye, is used for endpoint determination. The percent of the growth of the treated cells was determined in comparison to the untreated control cells and the results of each tested compound were reported. Data from one-dose experiments pertain to the percentage growth at 10 μM [16, 17, 18].
# CCRF-CEM = assay: NCI-60 one-dose screen (leukemia); conditions: 10 µM single dose
# Method: as §1
# SR = assay: NCI-60 one-dose screen (leukemia); conditions: 10 µM single dose
# Method: as §1
# RPMI-8226 = assay: NCI-60 one-dose screen (leukemia); conditions: 10 µM single dose, 48 h
# Method: as §1
# MOLT-4 = assay: NCI-60 one-dose screen (leukemia); conditions: 10 µM single dose, 48 h
# Method: as §1
# HL-60(TB) = assay: NCI-60 one-dose screen (leukemia); conditions: 10 µM single dose
# Method: as §1
# UACC-257 = assay: NCI-60 one-dose screen (melanoma); conditions: 10 µM single dose, 48 h
# Method: as §1
# SK-MEL-2 = assay: NCI-60 one-dose screen (melanoma); conditions: 10 µM single dose, 48 h
# Method: as §1
# MALME-3M = assay: NCI-60 one-dose screen (melanoma); conditions: 10 µM single dose, 48 h
# Method: as §1
# SK-MEL-28 = assay: NCI-60 one-dose screen (melanoma); conditions: 10 µM single dose, 48 h
# Method: as §1
# MDA-MB-435 = assay: NCI-60 one-dose screen (melanoma); conditions: 10 µM single dose, 48 h
# Method: as §1
# LOX IMVI = assay: NCI-60 one-dose screen (melanoma); conditions: 10 µM single dose, 48 h
# Method: as §1
# SK-MEL-5 = assay: NCI-60 one-dose screen (melanoma); conditions: 10 µM single dose, 48 h
# Method: as §1
# UACC-62 = assay: NCI-60 one-dose screen (melanoma); conditions: 10 µM single dose, 48 h
# Method: as §1
# SF-539 = assay: NCI-60 one-dose screen (CNS cancer); conditions: 10 µM single dose, 48 h
# Method: as §1
# SF-295 = assay: NCI-60 one-dose screen (CNS cancer); conditions: 10 µM single dose, 48 h
# Method: as §1
# SNB-75 = assay: NCI-60 one-dose screen (CNS cancer); conditions: 10 µM single dose, 48 h
# Method: as §1
# U251 = assay: NCI-60 one-dose screen (CNS cancer); conditions: 10 µM single dose, 48 h
# Method: as §1
# SNB-19 = assay: NCI-60 one-dose screen (CNS cancer); conditions: 10 µM single dose, 48 h
# Method: as §1
# SF-268 = assay: NCI-60 one-dose screen (CNS cancer); conditions: 10 µM single dose, 48 h
# Method: as §1
# A498 = assay: NCI-60 one-dose screen (renal cancer); conditions: 10 µM single dose, 48 h
# Method: as §1
# SN12C = assay: NCI-60 one-dose screen (renal cancer); conditions: 10 µM single dose, 48 h
# Method: as §1
# ACHN = assay: NCI-60 one-dose screen (renal cancer); conditions: 10 µM single dose, 48 h
# Method: as §1
# TK-10 = assay: NCI-60 one-dose screen (renal cancer); conditions: 10 µM single dose, 48 h
# Method: as §1
# UO-31 = assay: NCI-60 one-dose screen (renal cancer); conditions: 10 µM single dose, 48 h
# Method: as §1
# 786-0 = assay: NCI-60 one-dose screen (renal cancer); conditions: 10 µM single dose, 48 h
# Method: as §1
# SK-OV-3 = assay: NCI-60 one-dose screen (ovarian cancer); conditions: 10 µM single dose, 48 h
# Method: as §1
# OVCAR-8 = assay: NCI-60 one-dose screen (ovarian cancer); conditions: 10 µM single dose, 48 h
# Method: as §1
# OVCAR-5 = assay: NCI-60 one-dose screen (ovarian cancer); conditions: 10 µM single dose, 48 h
# Method: as §1
# IGROV1 = assay: NCI-60 one-dose screen (ovarian cancer)
# Method: as §1
# OVCAR-3 = assay: NCI-60 one-dose screen (ovarian cancer); conditions: 10 µM single dose
# Method: as §1
# OVCAR-4 = assay: NCI-60 one-dose screen (ovarian cancer); conditions: 10 µM single dose, 48 h
# Method: as §1
# NCI/ADR-RES = assay: NCI-60 one-dose screen (ovarian cancer); conditions: 10 µM single dose, 48 h
# Method: as §1
# T-47D = assay: NCI-60 one-dose screen (breast cancer); conditions: 10 µM single dose
# Method: as §1
# MCF7 = assay: NCI-60 one-dose screen (breast cancer); conditions: 10 µM single dose, 48 h
# Method: as §1
# MDA-MB-231/ATCC = assay: NCI-60 one-dose screen (breast cancer); conditions: 10 µM single dose, 48 h
# Method: as §1
# MDA-MB-468 = assay: NCI-60 one-dose screen (breast cancer); conditions: 10 µM single dose, 48 h
# Method: as §1
# HS 578T = assay: NCI-60 one-dose screen (breast cancer); conditions: 10 µM single dose, 48 h
# Method: as §1
# BT-549 = assay: NCI-60 one-dose screen (breast cancer); conditions: 10 µM single dose, 48 h
# Method: as §1
# HCC-2998 = assay: NCI-60 one-dose screen (colon cancer); conditions: 10 µM single dose, 48 h
# Method: as §1
# HCT-15 = assay: NCI-60 one-dose screen (colon cancer); conditions: 10 µM single dose, 48 h
# Method: as §1
# HT29 = assay: NCI-60 one-dose screen (colon cancer); conditions: 10 µM single dose, 48 h
# Method: as §1
# SW-620 = assay: NCI-60 one-dose screen (colon cancer); conditions: 10 µM single dose, 48 h
# Method: as §1
# KM12 = assay: NCI-60 one-dose screen (colon cancer); conditions: 10 µM single dose, 48 h
# Method: as §1
# HCT-116 = assay: NCI-60 one-dose screen (colon cancer); conditions: 10 µM single dose, 48 h
# Method: as §1
# COLO 205 = assay: NCI-60 one-dose screen (colon cancer); conditions: 10 µM single dose, 48 h
# Method: as §1
# PC-3 = assay: NCI-60 one-dose screen (prostate cancer); conditions: 10 µM single dose, 48 h
# Method: as §1
# DU-145 = assay: NCI-60 one-dose screen (prostate cancer); conditions: 10 µM single dose, 48 h
# Method: as §1
# NCI-H226 = assay: NCI-60 one-dose screen (non-small cell lung cancer); conditions: 10 µM single dose, 48 h
# Method: as §1
# EKVX = assay: as above; conditions: 10 µM single dose, 48 h
# Method: as §1
# HOP-92 = assay: as above; conditions: 10 µM single dose, 48 h
# Method: as §1
# NCI-H460 = assay: as above; conditions: 10 µM single dose, 48 h
# Method: as §1
# HOP-62 = assay: as above; conditions: 10 µM single dose, 48 h
# Method: as §1
# NCI-H522 = assay: as above; conditions: 10 µM single dose, 48 h
# Method: as §1
# A549/ATCC = assay: as above; conditions: 10 µM single dose, 48 h
# Method: as §1
# NCI-H23 = assay: as above; conditions: 10 µM single dose, 48 h
# Method: as §1
# NCI-H322M = assay: as above; conditions: 10 µM single dose, 48 h
# Method: as §1
structure (smiles),measurement,setting,value
COc1ccc(NC2=C(Cl)C(=O)c3nc(C)ccc3C2=O)cc1OC [AQQ4],GP (growth percentage),"K-562; 10 µM single dose, 48 h",7.18%
same,inhibition at 10 µM,"K-562; Homo sapiens, K562, 10 µM single dose",92.8%
same,GP (growth percentage),CCRF-CEM; 48 h,15.29%
same,inhibition at 10 µM,CCRF-CEM; Homo sapiens,84.7%
same,GP (growth percentage),SR; 48 h,0.92%
same,inhibition at 10 µM,SR; Homo sapiens,99.1%
same,GP (growth percentage),RPMI-8226,47.33%
same,GP (growth percentage),MOLT-4,69.83%
same,GP (growth percentage),HL-60(TB); 48 h,9.95%
same,inhibition at 10 µM,HL-60(TB); Homo sapiens,90%
same,GP (growth percentage),UACC-257,91.03%
same,GP (growth percentage),SK-MEL-2,100.13%
same,GP (growth percentage),MALME-3M,94.54%
same,GP (growth percentage),SK-MEL-28,101.65%
same,GP (growth percentage),MDA-MB-435,−67.16%
same,GP (growth percentage),LOX IMVI,−3.09%
same,GP (growth percentage),SK-MEL-5,86.57%
same,GP (growth percentage),UACC-62,71.83%
same,GP (growth percentage),SF-539,103.46%
same,GP (growth percentage),SF-295,103.62%
same,GP (growth percentage),SNB-75,110.92%
same,GP (growth percentage),U251,105.80%
same,GP (growth percentage),SNB-19,94.62%
same,GP (growth percentage),SF-268,84.69%
same,GP (growth percentage),A498,82.55%
same,GP (growth percentage),SN12C,90.46%
same,GP (growth percentage),ACHN,95.00%
same,GP (growth percentage),TK-10,148.82%
same,GP (growth percentage),UO-31,100.30%
same,GP (growth percentage),786-0,98.99%
same,GP (growth percentage),SK-OV-3,91.82%
same,GP (growth percentage),OVCAR-8,92.63%
same,GP (growth percentage),OVCAR-5,104.66%
same,GP (growth percentage),"IGROV1; 10 µM single dose, 48 h",19.63%
same,inhibition at 10 µM,"IGROV1; Homo sapiens, IGROV-1, 10 µM single dose",80.4%
same,GP (growth percentage),OVCAR-3; 48 h,13.16%
same,inhibition at 10 µM,OVCAR-3; Homo sapiens,86.8%
same,GP (growth percentage),OVCAR-4,71.38%
same,GP (growth percentage),NCI/ADR-RES,94.66%
same,GP (growth percentage),T-47D; 48 h,14.93%
same,inhibition at 10 µM,"T-47D; Homo sapiens, T47D",85.1%
same,GP (growth percentage),MCF7,59.00%
same,GP (growth percentage),MDA-MB-231/ATCC,72.96%
same,GP (growth percentage),MDA-MB-468,58.11%
same,GP (growth percentage),HS 578T,118.57%
same,GP (growth percentage),BT-549,126.22%
same,GP (growth percentage),HCC-2998,103.69%
same,GP (growth percentage),HCT-15,82.29%
same,GP (growth percentage),HT29,109.56%
same,GP (growth percentage),SW-620,72.23%
same,GP (growth percentage),KM12,98.23%
same,GP (growth percentage),HCT-116,55.84%
same,GP (growth percentage),COLO 205,107.70%
same,GP (growth percentage),PC-3,70.56%
same,GP (growth percentage),DU-145,93.00%
same,GP (growth percentage),NCI-H226,97.11%
same,GP (growth percentage),EKVX,50.81%
same,GP (growth percentage),HOP-92,112.07%
same,GP (growth percentage),NCI-H460,100.46%
same,GP (growth percentage),HOP-62,110.03%
same,GP (growth percentage),NCI-H522,78.84%
same,GP (growth percentage),A549/ATCC,107.06%
same,GP (growth percentage),NCI-H23,59.03%
same,GP (growth percentage),NCI-H322M,99.05%
